Laboratory results as given in a melting point compilation (Tetko et al.; mined from patent text by program, amines drawn as free bases though some values may be those of a salt).

Row | Compound | melting point [°C]
1 | CC1ON(C)C(=O)C(C(=O)c2ccc(Cl)cc2[N+](=O)[O-])C1=O (stereo not given) | 128
2 | CCN(C)c1nc2ccccc2n2cnc(-c3nc(C4CC4)no3)c12 | 96 to 97
3 | CNc1ccn2c(C(=O)c3ccc([N+](=O)[O-])c(OC)c3)c(C)c(C(=O)OCc3ccccc3)c2c1 | 228
4 | CCS(=O)(=O)c1ccc(C(=O)O)c(Cl)c1Cl | 170 to 172
5 | COC1=CC2=CCC3C(=CCC4(C)C(=O)C(C)CC34)C2(C)CC1 (stereo not given) | 124 to 129
6 | CSc1ccc(-c2nc(SC)c(C(=O)O)c(=O)n2-c2ccc(C)cc2)cc1 | 173 to 175
7 | O=c1c2c(Cc3ccc(C(F)(F)F)cc3)n[nH]c2c2cccnc2n1-c1ccccc1 | 216 to 219
8 | O=C(O)Cc1cccc(OCCCc2cn(-c3ccc(C(F)(F)F)cn3)nc2-c2ccccc2)c1 | 132 to 133
9 | COC1=C(OC)C(=O)C(CCCCCCCCCCCCCCCCCCCCCCO)=C(C)C1=O | 89 to 90.5
10 | C#CCN1C(=O)COc2ccc(-n3c(=O)cc(C(F)(F)F)[nH]c3=O)cc21 | > 250
11 | CC(C)C(=O)NCc1ccc(-c2csc(N=C(N)N)n2)o1 | 211 to 213
12 | COc1ccc(C(=O)Cc2c(Cl)cccc2Cl)c2c1OCCO2 | 154 to 155
13 | Nc1ncc(-c2noc(-c3cnn4c(C(F)(F)F)cc(-c5ccc(C(F)(F)F)c(Cl)c5)nc34)n2)cn1 | 279
14 | COC(=O)c1ccc(-c2cccc(C(=O)OC)c2)cc1 | 86 to 87
15 | C=C(C(=O)c1ccc(OCC(=O)O)c(Cl)c1Cl)C(C)(C)C | 160 to 162
16 | CCN1CCN(CC)c2cc([N+](=O)[O-])ccc2C1=O | 79 to 80
17 | NS(=O)(=O)c1cccc(-c2cccc(-c3nc(-c4ccc(C(F)(F)F)c(OCC(F)(F)F)c4)cc(C(F)(F)F)n3)c2)c1 | 188
18 | N#Cc1nn(-c2c(Cl)cc(Cl)cc2Cl)cc1C1CC1(Br)Br (stereo not given) | 164
19 | Cc1ccccc1OCCN1CCC(CNc2nc3ccccc3s2)CC1 | 126
20 | OC1CCc2c(Br)cccc21 (single isomer, unassigned; (-)) | 81
21 | COc1cccc(C(F)(F)F)c1O | 51 to 53
22 | NC(=O)c1ccn(-c2ccc(Oc3ccccc3)cc2)n1 | 165 to 167
23 | O=C1NCCN1c1ccc(S(=O)(=O)Nc2ccc3c(c2)Cc2ccccc2-3)cc1 | 164 to 166
24 | CC(C)C(NC(=O)C(Cc1ccccc1)NC(=O)OCc1ccccc1)C(=O)Nc1n[nH]c(=S)s1 (stereo not given) | 170 to 174

Row | Compound | melting point [°C]
25 | Cc1ccc(C)n1CCNC(=O)c1ccc(Cl)cc1 | 104 to 105
26 | CN(C)C=C(C#N)C(=O)Nc1ccccc1Cl | 122 to 123
27 | OCCCCCCCCCCCCN1CCC(CNC[C@H](O)COc2cccc3[nH]c4ccccc4c23)CC1 | 110
28 | COc1ccc(CN2Cc3cncn3C(c3ccc(Br)cc3)C2=O)cc1 (stereo not given) | 123 to 124
29 | O=C(O)c1ccc(Cl)cc1Oc1cccc(C(F)(F)F)c1 | 146
30 | CS(=O)(=O)N1CCC(NC(=O)Nc2cccc(F)c2)CC1 | 212 to 214
31 | CCOc1ccnc2[nH]cc(C(C)=O)c12 | > 210
32 | CC(=O)Nc1ccc(C#Cc2ccc(C3CC4CCCC(C3)N4C)nn2)cc1 (stereo not given) | 270 to 271
33 | CCC(C)C(NC(=O)OC)C(=O)NC(Cc1ccccc1)C(O)CN(Cc1ccc(-c2cncs2)cc1)NC(=O)OC(C)(C)C (stereo not given) | 163 to 166
34 | COC(=O)c1ccc(OC(C)c2ccccc2OCc2ccccc2)cc1 (stereo not given) | 90.8 to 91.5
35 | COc1ccc(C(=O)c2cc(Br)ccc2NC(=O)C(F)(F)F)cc1 | 149
36 | CCCCOc1ncc(C(C)O)cc1-c1nc2c(CC)n(C3CN(CC)C3)nc2c(=O)[nH]1 (stereo not given) | 117 to 119
37 | CC(=O)NC(Cc1c[nH]c2ccccc12)C(=O)OC(c1ccccc1)c1ccccc1 (stereo not given) | 147 to 148
38 | CC(C=C(N)C(=O)OCc1ccc(Cl)cc1)CP(=O)(O)O (stereo not given) | 207 to 208
39 | Nc1cccc(C2=NNC(=O)C3CC23)c1 (stereo not given) | 192 to 193
40 | CCOC(=O)C(C)(C(=O)OCC)c1cc(=O)n(Cc2ccccc2)c2ccccc12 | 130 to 131
41 | CC(C)Cn1nc(-c2ccc(F)cc2F)cc(CN2C(=O)c3ccccc3C2=O)c1=O | 152 to 156
42 | COCCCNC(=O)C1CCN(C(=O)c2[nH]c(C)c(-c3nc4ccc(C(=O)c5ccccc5)cc4[nH]3)c2C)CC1 | 289 to 291
43 | Cc1cc(C2=CCCCC2)c(OP2OCC(C)(C)CO2)c(C(C)(C)C)c1 | 97 to 102
44 | COc1cc(C=CC(=O)CC(C)=O)ccc1O | 146 to 147
45 | CCOC(=O)c1ccccc1-n1c(C)nc2cnccc21 | 125 to 127
46 | O=C(O)c1ccc(-c2n[nH]c3c2Cc2ccccc2-3)cc1 | > 320
47 | O=C(Nc1ccc(C(F)(F)F)cc1)OC1CCCNC1 (stereo not given) | 150 to 151
48 | Cc1c(-n2cnc3c(-c4ccccc4)cc(F)cc32)nc2ccc(F)cc2c1C(=O)O | 208 to 210

Row | Compound | melting point [°C]
49 | CCOC(=O)C1COc2c(C(=O)c3ccccc3)cccc21 (stereo not given) | 42 to 43
50 | C=CCc1cc(C=CNC(C)=O)ccc1OCC1CO1 (stereo not given) | 135 to 136
51 | CC(=O)c1cn(C)cc(-c2cccc(Br)c2)c1=O | 192 to 194
52 | O=C(Nc1cc(Cl)ccc1N1CCCCC1)c1cnn2cc(O)cnc12 | > 300
53 | CC(C)(C)OC(=O)[C@H](O)CCc1ccc([N+](=O)[O-])cc1 | 41 to 42
54 | CC1Oc2cc(N)c([N+](=O)[O-])cc2O1 (stereo not given) | 139
55 | Cc1ccc(-c2cncn2-c2ccc(S(C)(=O)=O)cc2)cc1F | 147
56 | N#Cc1ccc2oc(CCCCCc3cc4cc(C#N)ccc4o3)cc2c1 | 133 to 134
57 | CS(=O)c1ccc(Oc2ccc([N+](=O)[O-])cc2C#N)cc1 (stereo not given) | 159 to 160
58 | CNc1nc(NC)nc(NC)n1 | 133
59 | COc1ccccc1NC(=O)Nc1nc(Cl)nc(N(CCC(=O)O)Cc2cccc(C)c2)n1 | 205
60 | CC(C)(CN)c1ccc(C(=O)Nc2cn3cc(Cl)ccc3n2)cc1 | 245 to 247
61 | O=c1c(Cl)c(OCc2ccc(F)cc2F)ccn1Cc1cccc2c1CCNC2 | 180 to 184
62 | Clc1ncc(Cl)c(-c2ccc(Cl)c(Cl)c2)n1 | 125 to 126
63 | CN1C(=O)C(NC(=O)OCc2ccccc2)N=C(c2ccccc2)c2ccccc21 (stereo not given) | 78 to 80
64 | CN(C)S(=O)(=O)c1cn(C)c2cc(C(F)(F)F)ccc2c1=O | 221 to 223
65 | COc1ccc(Cn2cnc3c2CC(C(=O)O)N(C(=O)C(c2ccccc2)c2ccccc2)C3)cc1C (stereo not given) | 222 to 225
66 | CN1C(C)(C)CC2(CC1(C)C)NC(=O)N(CC(O)CN1C(=O)NC3(CC(C)(C)N(C)C(C)(C)C3)C1=O)C2=O | 255 to 256
67 | CN1C(=O)c2ccccc2N=C(NCCc2ccccc2)C1c1ccccc1 (stereo not given) | 173 to 174
68 | COc1cc(OC)nc(Nc2ncccc2C(=O)OCc2ccccc2)n1 | 128 to 131
69 | CC(C)OC(=O)c1cc(-n2c(=O)c3c(n(C)c2=O)CCC3)ccc1Cl | 148 to 150
70 | O=C(NCCCc1ccncc1)N(CC=Cc1ccccc1)CCC12CC3CC(CC(C3)C1)C2 | 130 to 134
